Test results reported in patent US7186703B2, “Derivatives of branched-chain lipophilic molecules and uses thereof” (D-Pharm Ltd., priority 2000, dated 2007).
“And” between values parts separate entries of the source, which are not always exact repeats. Identical values can stand only once.

Assays:
[1] = test system: Caco-2 colon cancer cell line; assay: MTT cytotoxicity, Caco-2; type: cell-based, human; settings: Caco-2, three days, read-out: EC50 (50% reduction in cell viability)
Protocol: (§1) The cytotoxic activity of various phospho-derivatives of branched-chain fatty acids (DP-BFAs) was assayed in vitro in cell cultures that include normal and malignant cell types. The following cell systems were used: • Primary fibroblasts (human) • Normal bone marrow (BM) cells (mouse) • Primary bronchial epithelial cells (human, from Clonetics, cat. no. CC-2541) • Caco-2—colon cancer cell line (human, ATTC, HTB-37) • C6 glioma cell line (rat, ATCC, CRL-2199) • Neuro2a—neuroblastoma cell line (mouse, ATCC, CCL-131) • SKBR-3—breast cancer cell line (human, ATTC, HTB-30) • HL60—myeloid leukemia cell line (human, ATCC, CCL-240) • U937—myeloid leukemia cell line (human)
(§2) Cells were seeded in a microtiter plate in MEM containing 2 mM L-glutamine, 100 units/ml penicillin, 100 ug/ml streptomycin and 10% FCS at 37° C. The cultured cells were incubated, during their linear growth phase in the absence (control group) or presence of various DP-BFAs as indicated. The final concentrations of the tested DP-BFAs ranged from 1.5 to 200 microMolars. At the end of the incubation period, which was five days for the bone marrow cells and three days for all the other cell lines, the cytotoxic effect of the added P-BFA on the cells was estimated by using the colorimetric MTT assay. The MTT assay (Mosmann (1983) J. Immunol Methods 65: 55–63) measures mitochondrial reductase activity and serves for quantitative assessment of cellular viability. Drug concentration that causes 50% reduction in cell viability in comparison to the control group, is defined as EC50. The EC50 values of the tested DP-BFA compounds were calculated from dose response curves established for each of the different assayed cell lines.
(§3) Each EC50 value is an average of EC50 values derived from 1–5 independent experiments.

C6 glioma cell line = assay: MTT cytotoxicity, C6 glioma; type: cell-based, rat; settings: three days, read-out: EC50 (50% reduction in cell viability)
Protocol: as §1, §2, §3

[2] = test system: Neuro2a neuroblastoma cell line; assay: MTT cytotoxicity, Neuro2a; type: cell-based, mouse; settings: three days, read-out: EC50 (50% reduction in cell viability)
Protocol: as §1, §2, §3

[3] = test system: SKBR-3 breast cancer cell line; assay: MTT cytotoxicity, SKBR-3; type: cell-based, human; settings: three days, read-out: EC50 (50% reduction in cell viability)
Protocol: as §1, §2, §3

[4] = test system: U937 myeloid leukemia cell line; assay: MTT cytotoxicity, U937; type: cell-based, human; settings: U937, three days, read-out: EC50 (50% reduction in cell viability)
Protocol: as §1, §2, §3

Primary fibroblasts = assay: MTT cytotoxicity, normal primary fibroblasts; type: cell-based, human; settings: three days, read-out: EC50 (50% reduction in cell viability)
Protocol: as §1, §2, §3

[5] = test system: Normal bone marrow (BM) cells; assay: MTT cytotoxicity, normal bone marrow cells; type: cell-based, mouse; settings: five days, read-out: EC50 (50% reduction in cell viability)
Protocol: as §1, §2, §3

[6] = test system: Primary bronchial epithelial cells; assay: MTT cytotoxicity, normal primary epithelial cells; type: cell-based, human; settings: Normal primary epithel, three days, read-out: EC50 (50% reduction in cell viability)
Protocol: as §1, §2, §3

[7] = test system: blood brain barrier (BBB); assay: BBB permeabilization in rats, Evans blue extravasation into brain; type: in vivo, Sprague-Dawley rats; settings: Table 6; for μg EB/g brain (at EC50): at EC50 (Mannitol at 25%)
Text: Permeabilization of the BBB by DP-BFA was investigated in rat model system by monitoring accumulation in the brain of two markers: a) Evans blue dye (EB), which rapidly binds in vivo with albumin (NW 70 kD) and is an indicator for paracellular transport; and b) Fluorescein sodium salt (F—Na), MW 376 D, which is transported via the cellular space, and enables monitoring transcellular transport. Upon BBB disruption the Evans blue-albumin complex irreversibly accumulates in the intercellular space of the brain. The much smaller tracer fluorescein may be transported intracellularly to occupy both inter and intracellular space in the brain.
Blood brain barrier permeabilization in Sprague-Dawley rats was induced by brief exposure to DP-BFA. The animals were anesthetized with Rampun-Imalgen and DP-BFA test compounds were administered via the external carotid artery retrograde to the brain (Smith, Q. R. Methods of study. In: Physiology and Pharmacology of the Blood-Brain Barrier. Ed. Bradbury M. W. B. Spinger-Verlag. Berlin-Heidelberg-NY; 1992: 24–52). The pterygo-palathina artery was ligated to avoid escape of infused solutions towards the external head vasculature. DP-BFA solutions were infused over a period of 30 seconds or half an hour, using a Harvard Apparatus Syringe Pump. Blood flow through carotid communis artery was interrupted only at the time of infusion.
All tested DP-BFA molecules were prepared from stock solutions in either water or ethanol by diluting 200–1000 fold into solution of isosmotic mannitol (5%) in Tromethamine buffer (Sigma) or PBS (pH 7.4)
The markers, Evans blue (EB, 25 mg/ml) and fluorescein (F—Na, 12.5 mg/ml), in 1 ml solution, were injected intravenously immediately following administration of the tested DP-BFA, or after a specific time interval if reversibility of action was investigated. Supportive i.v. infusion of F—Na (12.5 mg/ml–100 μl/min) was performed for 8 minutes. Brains were washed with saline solution (60 ml) 10 min after the intracarotid “flash”. Brain ipsilateral and contralateral hemispheres and tumors, where applicable, were homogenized separately with 50% trichloroacetic acid (TCA). The markers concentrations in the cortex and in tumors, where, applicable, were determined spectrofluorometrically (Uyama, O. et al., (1988) J. Cereb. Blood Flow Metab. 8, 282–284: Abraham et al., (1996) Neurosci. Lett. 208, 85–88). The markers content was calculated as μg marker per one-gram brain tissue. Standard error and Student's test for statistical significance were used.
The experiment was carried out on male Sprague-Dawley rats weighing 250–320 g. The procedure described above in Example 17 was followed.
The effect of the tested compounds on the BBB opening was evaluated by two parameters:
a) efficacy—The degree of BBB opening estimated in terms of accumulation of Evans Blue albumin (μg EB/g brain tissue); and
b) potency—measured in terms of EC50 and minimal effective concentration (MEC) values. EC50 is the concentration of a tested compound producing 50% of the maximal effect of Evans Blue extravasation.
The effect of various DP-BFAs on BBB permeability was tested in the model system of rat brains, as described above in Example 17. Efficacy, namely the level of the BBB opening was expressed as the amount of Evans blue accumulated in the brain (μg EB/g brain). Potency of the tested molecules was estimated by their calculated EC50 and minimal effective concentration (MEC) values.

[8] = test system: blood brain barrier (BBB); assay: BBB permeability to EB-albumin and Fluorescein in normal rat brains; type: in vivo; settings: compounds at EC50 (Mannitol 25%); for % EB/g brain: control 0.04 ± 0.01; for Brain fluorescein uptake (% of serum F-Na level): control 0.3 ± 0.08; for Ratio F-Na/EB (mean of individual ratios): control 9.5 ± 1.6
Text: The effect of various DP-BFAs on BBB permeabilization to molecules of different sizes was examined in vivo in the model system of normal rat brains.
The transport of two markers was followed: a) Evans blue bound to albumin (MW 70 kD) as an indicator for paracellular transport; and b) Fluorescein sodium salt (MW 376 D) that represents small size molecules.
The Evans blue dye (EB) and Fluorescein sodium salt (F—Na) were infused into the artery carotis externa over 30 seconds according to the protocol described above in Example 17. The test compounds were used at their EC50 concentrations. Control animals were treated with vehicle solution.
Evans blue extravasation is expressed as the percentage of the total amount of EB accumulated per one gram of brain tissue. The transport of fluorescein into the brain, which is dependent on the serum concentration of this molecule, is presented as percentage of the F—Na level in the serum.

[9] = test system: blood tumor barrier (BTB) of C6 glioma; assay: BTB opening in C6 glioma-bearing rats, Evans blue accumulation in tumor; type: in vivo, Sprague Dawley rats; settings: for Specificity Tumor/Non-tumor (T/NT): ratio of EB accumulated in tumor and non-tumor brain
Protocol: (§4) In order to study the ability of DP-BFA compounds to modulate blood tumor barrier (BTB), a model system of C6 glioma-bearing rats, was employed.
(§5) Sprague Dawley (SD) rats were inoculated with C6 gliosarcoma cells following the procedure described by Bartus et al. (Exp Neurol (1996); 142:14–28). A small burr-hole was made in the frontal scalp bone of the rat fixed in a stereotaxis apparatus. Using a Hamilton syringe, 10 μl or 5 μl of media, containing 2.5×10^5 C6 gliosarcoma cells were inoculated into the frontal cortex. Coordinates were 1 mm posterior of bregma, 2.5 mm—lateral, and 3 mm—depth. The needle remained in the place for 5 min. After removal of the needle, fascia and scalp were sutured. The rats were checked 6–8 days after inoculation, when tumors of sufficient size (20–60 mg) had developed. The tumor was weighed after F—Na visualization and dissection. Parts of the rats' brains were subject to histological examinations and monitored for Evans Blue and Fluorescein uptake into ipsilateral tumour tissue, peritumoural tissue and contralateral tissue.
(§6) The bilateral tumor model system of C6 glioma-bearing rats described in Example 23 above was employed for screening of various derivatives of DP-BFA for their ability to permeabilize the blood brain barrier (BBB) in comparison to their effect on the blood tumor barrier (BTB). The experimental procedure described in Example 23 was followed except that the tumor-bearing rats were further treated with DP-BFA. The tested compounds, at concentrations around their EC50 values, were unilaterally infused into the external carotis artery over 30 seconds as described in Example 17. Animals treated with vehicle only serve as a control group. Permeabilization effect was quantitated by measuring accumulation of albumin bound Evans blue dye in tumor (T) versus non-tumor (NT) tissues.
(§7) Specificity index is defined as the ratio between the levels of EB accumulated in tumor and those accumulated in non-tumor brain tissues (T/NT).

[10] = test system: blood brain barrier (BBB); assay: BBB opening in C6 glioma-bearing rats, Evans blue accumulation in non-tumor brain; type: in vivo, Sprague Dawley rats; settings: concentrations around EC50 (Mannitol 25%), unilateral 30 s infusion
Protocol: as §4, §5, §6, §7

[11] = test system: blood tumor barrier / blood brain barrier; assay: Unilateral administration in rats with bilateral C6 gliomas, Evans blue staining of brain sections; type: in vivo, SD rats; settings: 10 μM 3,12-DEG-HPO4Na; 40 μM 3,12-Na; 25% mannitol; unilateral infusion
Protocol: FIGS. 2A–C depict Evans blue accumulation in brain sections of rats bearing bilateral gliomas following unilateral administration of a compound as follows: 10 μM 3,12-DEG-HPO4Na (FIG. 2A), 40 μM 3,12-Na (FIG. 2B) or mannitol 25% (FIG. 2C).
Evans Blue and Fluoroscein penetration into gliomas tumors was examined following unilateral infusion into the external carotis artery of either 10 μM 3,12-DEG-HPO4Na (FIG. 2A), 40 μM 3,12-Na BFA (FIG. 2B) or 25% mannitol (FIG. 2C). The relevant compound was infused into rat brains at 9 to 12 days following inoculation of C6 glioma cells as described in Example 23.

Compound | EC50 [1] [µM] | EC50 (C6 glioma cell line) [µM] | EC50 [2] [µM] | EC50 [3] [µM] | EC50 [4] [µM] | EC50 (Primary fibroblasts) [µM] | EC50 [5] [µM] | EC50 [6] [µM] | μg EB/g brain (at EC50) [7] | MEC (minimal effective concentration) ([7]; concentration giving 3 μg EB/g brain) [µM] | EC50 ([7]; rat brains, Evans blue extravasation, read-out: EQ50 (the source's name)) [µM] | % EB/g brain [8] [%] | Brain fluorescein uptake (% of serum F-Na level) [8] | Ratio F-Na/EB (mean of individual ratios) [8] | Ratio F-Na/EB (mean of individual ratios) ([8]; listed as mannitol) | BTB EB μg/g Tumor ([9]; concentrations around EC50 (Mannitol 25%), unilateral 30 s infusion) [µg/g] | Specificity Tumor/Non-tumor (T/NT) [9] | Specificity Tumor/Non-tumor (T/NT) ([9]; listed as mannitol) | BBB EB μg/g Non-tumor brain [10] [µg/g] | Evans Blue staining of tumor and non-tumor brain (FIG. 2, in words) [11]
CCCCCCCCCCCCC(CCC)OCCOCCOP(=O)([O-])[O-].[Na+].[Na+] (stereo not drawn) [3,12-(ether)-DEG-PO4Na2, 2(4-Hexadecanoxy)ethoxyethyl Disodium Phosphate] | 47 | 40 | 37 | 58 | 10 | 65 | 68 | > 200 | 26 μg EB/g brain and 26 ± 5.2 μg EB/g brain | 7.3 ± 1.4 | 54 ± 5 | 4 ± 0.8 | 4.4 ± 0.9 % of the F—Na level in the ser | 1.1 and 1.1 ± 0.2 |  |  |  |  |  | 
OC[C@@H](O)[C@@H](O)[C@H](O)[C@H](O)CO [Mannitol, mannitol, reference compound] |  |  |  |  |  |  |  |  | 10 ± 2 μg EB/g brain |  |  | 0.6 ± 0.21 | 2.4 ± 0.4 % of the F—Na level in the ser | 4.0 ± 0.5 | 4 | 12 ± 2 | 2.1 ± 0.5 | about twice | 7 ± 2 | equally permeabilized tumor and non-tumor brain tissues
